These results are taken from US20260159512A1, “BCAT2 INHIBITORS” (AGIOS PHARMACEUTICALS, INC., priority 2021, published 2026).

What all share (conditions): average where tested multiple times
Test [1] addresses T1, BCAT2 (Homo sapiens, UniProt O15382).
T1 sequence (O15382 28-392): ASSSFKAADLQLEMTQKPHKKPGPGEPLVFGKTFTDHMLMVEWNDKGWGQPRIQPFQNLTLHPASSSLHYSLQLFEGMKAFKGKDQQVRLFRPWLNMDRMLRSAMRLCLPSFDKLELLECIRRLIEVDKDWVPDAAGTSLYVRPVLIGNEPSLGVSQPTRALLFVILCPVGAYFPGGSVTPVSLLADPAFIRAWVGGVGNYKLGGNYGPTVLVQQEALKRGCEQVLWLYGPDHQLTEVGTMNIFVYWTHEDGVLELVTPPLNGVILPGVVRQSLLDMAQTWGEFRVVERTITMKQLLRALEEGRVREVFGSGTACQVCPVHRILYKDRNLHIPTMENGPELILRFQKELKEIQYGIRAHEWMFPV
Briefly: BCAT2 in vitro enzyme inhibition assay (resazurin/diaphorase-coupled fluorescence). It is filed as biochemical. In a few lines:
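Coupled fluorescence readout: glutamate formed from L-leucine/α-ketoglutarate transamination drives GDH/NAD/diaphorase reduction of resazurin (Ex 540/Em 590). Human BCAT2 was first exposed 1 h at room temperature to compound, top final 100 μM in 3-fold, 10-point series; substrate reaction ran 1 h before SDS quench, in technical duplicate with DMSO max and enzyme-free min controls.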
(In general: The colour change of resazurin is a common sign of viable cells or microbes.)

The target in test [2] is T2, hBCAT1 (Homo sapiens, UniProt P54687).
T2 sequence (P54687 1-386): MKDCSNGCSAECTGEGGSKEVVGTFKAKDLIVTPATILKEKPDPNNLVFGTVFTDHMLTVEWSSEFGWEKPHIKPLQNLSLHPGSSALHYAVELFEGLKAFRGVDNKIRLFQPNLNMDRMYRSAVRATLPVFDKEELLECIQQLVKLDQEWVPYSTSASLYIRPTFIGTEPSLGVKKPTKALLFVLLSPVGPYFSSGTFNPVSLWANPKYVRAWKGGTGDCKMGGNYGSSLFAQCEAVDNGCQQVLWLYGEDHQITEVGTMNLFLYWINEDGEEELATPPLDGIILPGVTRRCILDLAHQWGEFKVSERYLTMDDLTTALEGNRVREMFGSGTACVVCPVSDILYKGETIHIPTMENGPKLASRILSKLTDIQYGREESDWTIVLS
Nature of the test: BCAT1 in vitro enzyme inhibition assay (resazurin/diaphorase-coupled fluorescence). It is filed as biochemical. The procedure:
BCAT1 In Vitro Enzyme Inhibition Assay
Meanwhile the Substrate Mix was prepared.
Test Compound Preparation:
Test compounds were prepared at 50× final concentration in DMSO, 1 to 3 dilutions were made for 10 points. The compounds were added to the assay as a 1 to 50 dilution (1 μL in 50 μL) to yield a top assay final concentration of 100 μM, decreasing 3-fold for 10 points. […] All tests were performed in technical duplicate.
Where a compound was tested multiple times, the average value of the tests is reported.

For test [3], the target named is T1, BCAT2. Nature of the test: BCAT2 in vitro cell inhibition using engineered A549 cells (KMV cell assay, 13C6-KMV by LC-MS/MS). It is filed as cell-based. On the set-up: The result was an engineered A549 cell line that expressed endogenous BCAT2; endogenous in cells; host or cells: A549 cells with MUT and BCAT1 knocked out by CRISPR/CAS9; key to BCAT2 Cell Inhibition: A: less than or equal to 0.100 μM; B: greater than 0.100 and less than or equal to 0.500 μM; C: greater than 0.500 and less than or equal to 1.000 μM; d: greater than 1.000 μM; E: no fit.

By IC50 is commonly meant the point on the concentration scale where inhibition reaches its midpoint.

Regarding `Cn1cc(-c2cc3nc(-c4ccccn4)n(C4CCCC(NC(=O)c5ccc(Br)s5)C4)c3cn2)cn1` (centres unmarked) [Example 156, 5-bromo-N-(3-(6-(1-methyl-1H-pyrazol-4-yl)-2-(pyridin-2-yl)-3H-imidazo[4,5-c]pyridin-3-yl)cyclohexyl)thiophene-2-carboxamide], the 50% inhibitory concentration (IC50) in test [1] is over 1000 nM; in test [2] it was over 5000 nM.
The corresponding values for `C#Cc1cnc(C(=O)N[C@H]2CCC[C@@H](n3c(-c4ccccn4)nc4cnc(-n5cncn5)cc43)C2)s1` [Example 27, 5-ethynyl-N-((1S,3R)-3-(2-(pyridin-2-yl)-6-(1H-1,2,4-triazol-1-yl)-1H-imidazo[4,5-c]pyridin-1-yl)cyclohexyl)thiazole-2-carboxamide] are at most 100 nM and 1000 to 5000 nM.
Taken in the same sequence, the figures for `Cc1nc2cnc(-n3nccn3)cc2n1[C@@H]1CCC[C@H](NC(=O)c2ccc(Br)s2)C1` [Example 51, 5-bromo-N-((1S,3R)-3-(2-methyl-6-(2H-1,2,3-triazol-2-yl)-1H-imidazo[4,5-c]pyridin-1-yl)cyclohexyl)thiophene-2-carboxamide] were over 1000 nM and over 5000 nM.
The corresponding values for `C[C@@H]1CCCN1c1cc2c(cn1)nc(-c1ccccc1F)n2[C@@H]1CCC[C@H](NC(=O)c2ncc(Cl)s2)C1` [Example 195, 5-chloro-N-((1S,3R)-3-(2-(2-fluorophenyl)-6-((R)-2-methylpyrrolidin-1-yl)-1H-imidazo[4,5-c]pyridin-1-yl)cyclohexyl)thiazole-2-carboxamide] are 100 to 500 nM and 1000 to 5000 nM.
On to `O=C(NC1CCC(n2c(-c3ccccn3)nc3cnc(-n4nccn4)cc32)C1)c1ccc(Br)s1` (centres unmarked) [Example 93, 5-bromo-N-(3-(2-(pyridin-2-yl)-6-(2H-1,2,3-triazol-2-yl)-1H-imidazo[4,5-c]pyridin-1-yl)cyclopentyl)thiophene-2-carboxamide], for which the IC50 was 100 to 500 nM in test [1] and over 5000 nM in test [2].
Taken in the same sequence, the figures for `CNC(=O)c1ccc2c(c1)nc(-c1ccccn1)n2C1CC(NC(=O)c2ccc(Br)s2)CN(C(N)=O)C1` (centres unmarked) [Example 293, 1-(5-(5-bromothiophene-2-carboxamido)-1-carbamoylpiperidin-3-yl)-N-methyl-2-(pyridin-2-yl)-1H-benzo[d]imidazole-5-carboxamide] were at most 100 nM and 1000 to 5000 nM.
The corresponding values for `Cc1cn(-c2cc3c(cn2)nc(-c2ccccn2)n3[C@@H]2CCC[C@H](NC(=O)c3ccc(Br)s3)C2)nn1` [Example 40, 5-bromo-N-((1S,3R)-3-(6-(4-methyl-1H-1,2,3-triazol-1-yl)-2-(pyridin-2-yl)-1H-imidazo[4,5-c]pyridin-1-yl)cyclohexyl)thiophene-2-carboxamide] are at most 100 nM and 1000 to 5000 nM.
In turn, `CC(C)Cc1nc2cnc(-c3ccccn3)cc2n1[C@H]1CCC[C@@H](NC(=O)c2ncc(Cl)s2)[C@@H]1O` [Example 236, 5-chloro-N-((1R,2S,3S)-2-hydroxy-3-(2-isobutyl-6-(pyridin-2-yl)-1H-imidazo[4,5-c]pyridin-1-yl)cyclohexyl)thiazole-2-carboxamide] gave an IC50 in test [1] of 500 to 1000 nM. Besides, the “BCAT2 Cell Inhibition” value in test [3] is given as “E”.
Consider `N#Cc1ccc(-c2nc3cnc(-c4nc[nH]n4)cc3n2[C@@H]2CCC[C@H](NC(=O)c3ccc(Cl)s3)C2)c(F)c1` [Example 353, 5-chloro-N-((1S,3R)-3-(2-(4-cyano-2-fluorophenyl)-6-(1H-1,2,4-triazol-3-yl)-1H-imidazo[4,5-c]pyridin-1-yl)cyclohexyl)thiophene-2-carboxamide], for which the IC50 in test [1] and in test [3] was over 1000 nM throughout.
As for `O=C(NN1CCCC(n2c(-c3ccccn3)nc3cnc(-n4nccn4)cc32)C1)c1ncc(C(F)F)s1` (centres unmarked) [Example 137, 5-(difluoromethyl)-N-(3-(2-(pyridin-2-yl)-6-(2H-1,2,3-triazol-2-yl)-1H-imidazo[4,5-c]pyridin-1-yl)piperidin-1-yl)thiazole-2-carboxamide], in test [1], the concentration for half-maximal inhibition (IC50) is over 1000 nM. Further, the “BCAT2 Cell Inhibition” value in test [3] was “E”.
On to `O=C(N[C@@H]1CCC[C@H](n2c(-c3ccccc3F)nc3cnc(-n4nccn4)cc32)[C@H]1O)c1ncc(Cl)s1` [Example 114, 5-chloro-N-((1R,2S,3S)-3-(2-(2-fluorophenyl)-6-(2H-1,2,3-triazol-2-yl)-1H-imidazo[4,5-c]pyridin-1-yl)-2-hydroxycyclohexyl)thiazole-2-carboxamide], for which the concentration for half-maximal inhibition (IC50) in test [1] and in test [3] was 100 to 500 nM throughout.
For `CC(C)Cc1nc2cnc(-c3ccn(C)n3)cc2n1C1CC(O)CC(NC(=O)c2ncc(Cl)s2)C1` (centres unmarked) [Example 210, 5-chloro-N-(3-hydroxy-5-(2-isobutyl-6-(1-methyl-1H-pyrazol-3-yl)-1H-imidazo[4,5-c]pyridin-1-yl)cyclohexyl)thiazole-2-carboxamide], the values for the IC50 in test [1] and in test [3] were at most 100 nM and 500 to 1000 nM, respectively.
On to `O=C(N[C@H]1CCC[C@@H](n2c(C3COCCO3)nc3cnc(-c4nc[nH]n4)cc32)C1)c1ncc(Cl)s1` (single isomer, unassigned) [Example 177], for which the half-maximal inhibitory concentration (IC50) in test [1] was in the range of 500 to 1000 nM. In addition, the “BCAT2 Cell Inhibition” value in test [3] is on record as “E”.
With `O=C(N[C@@H]1C[C@@H](O)C[C@H](n2c(-c3ccccc3F)nc3cnc(-c4ccccn4)cc32)C1)c1ncc(Cl)s1` [Example 253, 5-chloro-N-((1S,3R,5R)-3-(2-(2-fluorophenyl)-6-(pyridin-2-yl)-1H-imidazo[4,5-c]pyridin-1-yl)-5-hydroxycyclohexyl)thiazole-2-carboxamide], the IC50 in test [1] and in test [3] was 100 to 500 nM throughout.
On to `O=C(O)CCc1ccccc1-c1nc2cnc(-n3nccn3)cc2n1[C@@H]1CCC[C@H](NC(=O)c2ncc(C(F)F)s2)C1` [Example 100, 3-(2-(1-((1R,3S)-3-(5-(difluoromethyl)thiazole-2-carboxamido)cyclohexyl)-6-(2H-1,2,3-triazol-2-yl)-1H-imidazo[4,5-c]pyridin-2-yl)phenyl)propanoic acid], for which the IC50 in test [1] lay in the range of 500 to 1000 nM. In test [3], the “BCAT2 Cell Inhibition” value was “E”.
In the case of `CO[C@H]1C[C@H](NC(=O)c2ccc(Cl)s2)C[C@H](n2c(-c3ccccc3F)nc3cnc(-c4nc[nH]n4)cc32)C1` (stereo in doubt) [Example 411, 5-chloro-N-((1R,3S,5S)-3-(2-(2-fluorophenyl)-6-(1H-1,2,4-triazol-3-yl)-1H-imidazo[4,5-c]pyridin-1-yl)-5-methoxycyclohexyl)thiophene-2-carboxamide], the concentration for half-maximal inhibition (IC50) in test [1] was 100 to 500 nM; in test [3], over 1000 nM.
In test [1], `CC(C)Cc1nc2cnc(-c3cccc(F)n3)cc2n1[C@H]1CCC[C@@H](NC(=O)c2ncc(Cl)s2)[C@@H]1O` [Example 208, 5-chloro-N-((1R,2S,3S)-3-(6-(6-fluoropyridin-2-yl)-2-isobutyl-1H-imidazo[4,5-c]pyridin-1-yl)-2-hydroxycyclohexyl)thiazole-2-carboxamide] yielded an IC50 of over 1000 nM. Also, the “BCAT2 Cell Inhibition” value in test [3] is on record as “E”.
Take `O=C(N[C@@H]1C[C@@H](O)C[C@H](n2c(-c3ccccc3F)nc3cnc(-c4ccn[nH]4)cc32)C1)c1ncc(Cl)s1` (single isomer, unassigned) [Example 259]: the IC50 in test [1] is 100 to 500 nM; in test [3] it was over 1000 nM.
Molecule `O=C(N[C@H]1CCC[C@@H](n2c(CN3CCCCC3)nc3cnc(-n4nccn4)cc32)C1)c1ncc(C(F)F)s1` [Example 95, 5-(difluoromethyl)-N-((1S,3R)-3-(2-(piperidin-1-ylmethyl)-6-(2H-1,2,3-triazol-2-yl)-1H-imidazo[4,5-c]pyridin-1-yl)cyclohexyl)thiazole-2-carboxamide] gave an IC50 in test [1] of over 1000 nM. In addition, the “BCAT2 Cell Inhibition” value in test [3] was “E”.
